# Source: ChEMBL document CHEMBL5260805, “Therapeutic journey of 2,4-thiazolidinediones as a versatile scaffold: An insight into structure activity relationship” (Eur J Med Chem, 2017)
# Columns and labels:
# Nakaseomyces glabratus = experiment: Antifungal activity against Candida glabrata; format: functional
# Candida albicans = experiment: Antifungal activity against Candida albicans; format: functional
# Pichia kudriavzevii = experiment: Antifungal activity against Candida krusei; format: functional
# Candida parapsilosis = experiment: Antifungal activity against Candida parapsilosis; format: functional; details: Lodderomyces parapsilosis
# RAW264.7 = experiment: Inhibition of LPS-induced NO production in mouse RAW264.7 cells; format: functional
# Klebsiella pneumoniae = experiment: Antibacterial activity against Klebsiella pneumoniae; format: functional
# Aspergillus niger [1] = experiment: Antifungal activity against Aspergillus niger; format: functional
# Escherichia coli [2] = experiment: Antibacterial activity against Escherichia coli; format: functional
# [3] = target: Human immunodeficiency virus type 1 reverse transcriptase (Human immunodeficiency virus 1, UniProt Q72547); experiment: Inhibition of HIV-1 reverse transcriptase
# Salmonella typhimurium = experiment: Antibacterial activity against Salmonella typhimurium; format: functional, Salmonella enterica subsp. enterica serovar Typhimurium; details: Salmonella enterica
# Pseudomonas aeruginosa [4] = experiment: Antibacterial activity against Pseudomonas aeruginosa; format: functional
# [5] = target: Human immunodeficiency virus type 1 reverse transcriptase (Human immunodeficiency virus 1) (UniProt Q72547); experiment: Inhibition of HIV-1 reverse transcriptase relative to control; details: concentration not given here
# Bacillus subtilis = experiment: Antibacterial activity against Bacillus subtilis; format: functional
# Mus musculus [6] = organism: Mus musculus; experiment: Hypolipidemic activity in KKAY mouse assessed as reduction in triglyceride level; format: functional
# Mus musculus [7] = organism: Mus musculus; experiment: Hypoglycemic activity in KKAY mouse assessed as reduction in blood glucose level; format: functional
# Staphylococcus aureus [8] = experiment: Antibacterial activity against Staphylococcus aureus; format: functional
# Mus musculus [9] = experiment: Hypoglycemic activity in db/db mouse assessed as reduction in blood glucose level at 10 mg/kg; format: functional; set-up: scale not given: the % may be the effect or the level left
# Mus musculus [10] = experiment: Hypolipidemic activity in db/db mouse assessed as reduction in triglyceride level at 10 mg/kg; format: functional; set-up: scale not given: the % may be the effect or the level left
# [11] = target: Xanthine dehydrogenase/oxidase (Homo sapiens, UniProt P47989); experiment: Inhibition of human milk xanthine oxidase relative to control
# Rattus norvegicus [12] = organism: Rattus norvegicus; experiment: Antidiabetic activity in Wistar rat assessed as reduction in blood glucose level after 120 mins; format: functional; details: 2 h
# [13] = target: Peroxisome proliferator-activated receptor gamma (Homo sapiens) (UniProt P37231); experiment: Agonist activity at PPARgamma (unknown origin) assessed as fold increase at 10 uM by luciferase reporter gene assay; details: filed as agonist
# [14] = target: Hexokinase-4 (Homo sapiens) (UniProt P35557); experiment: Agonist activity at glucokinase (unknown origin) assessed as fold increase at 10 uM by luciferase reporter gene assay; details: filed as agonist
# Mus musculus [15] = organism: Mus musculus; experiment: Antihyperglycemic activity in sucrose loaded mouse model assessed as decrease in blood glucose level; format: functional; set-up: scale not given: the % may be the effect or the level left
# Mus musculus [16] = experiment: Hypoglycemic activity in C57BL/6J db/db mouse assessed as reduction in blood glucose level at 50 mg/kg after 3 days; format: functional; set-up: scale not given: the % may be the effect or the level left; details: time 3 day
# Mus musculus [17] = experiment: Hypolipidemic activity in C57BL/6J db/db mouse assessed as reduction in triglyceride level at 200 mg/kg; format: functional; set-up: scale not given: the % may be the effect or the level left
# Rattus norvegicus [18] = organism: Rattus norvegicus; experiment: Antidiabetic activity in Wistar rat assessed as increase in glucose uptake in presence of insulin after 45 mins; format: functional; details: 0.75 h
# Rattus norvegicus [19] = organism: Rattus norvegicus; experiment: Antidiabetic activity in Wistar rat assessed as increase in glucose uptake in absence of insulin after 45 mins; format: functional; details: 0.75 h
# Mus musculus [20] = experiment: Hypoglycemic activity in db/db mouse assessed as reduction in blood glucose level at 30 mg/kg/day, po administered for 6 days; format: functional; set-up: scale not given: the % may be the effect or the level left; details: time 6 day
# Mus musculus [21] = experiment: Hypolipidemic activity in db/db mouse assessed as reduction in triglyceride level at 30 mg/kg/day, po administered for 6 days; format: functional; set-up: scale not given: the % may be the effect or the level left; details: time 6 day
# Rattus norvegicus [22] = organism: Rattus norvegicus; experiment: Hypolipidemic activity in alloxan induced diabetic rat model assessed as increase in HDL/LDL ratio; format: functional
# Rattus norvegicus [23] = organism: Rattus norvegicus; experiment: Hypolipidemic activity in alloxan induced diabetic rat model assessed as increase in HDL; format: functional
# Mus musculus [24] = experiment: Hypoglycemic activity in db/db mouse assessed as reduction in blood glucose level at 100 mg/kg/day; format: functional
# [25] = target: Peroxisome proliferator-activated receptor gamma (Homo sapiens) (UniProt P37231); experiment: Transactivation of PPARgamma (unknown origin) expressed in HEK293 cells at 10 uM after 24 hrs by luminometer assay; format: cell-based; details: filed as activator
# [26] = Inhibition of bovine lens ALR2; format: tissue-based, Bos taurus
# [27] = Inhibition of bacterial peptide deformylase; set-up: species or system Bacteria
# Aspergillus niger [28] = experiment: […] activity against Aspergillus niger ATCC-9029; format: functional
# Staphylococcus aureus [29] = experiment: Antibacterial activity against Staphylococcus aureus ATCC 9144; format: functional
# [30] = system: Staphylococcus epidermidis; experiment: Antibacterial activity against Staphylococcus epidermidis ATCC-155; format: functional
# Escherichia coli [31] = experiment: Antibacterial activity against Escherichia coli ATCC 25922; format: functional
# Aspergillus fumigatus = experiment: […] activity against Aspergillus fumigatus ATCC-46645; format: functional
# Pseudomonas aeruginosa [32] = experiment: Antibacterial activity against Pseudomonas aeruginosa […]; format: functional
# [33] = target: Peroxisome proliferator-activated receptor gamma (Homo sapiens, UniProt P37231); experiment: Agonist activity at human PPARgamma transfected in HEK293 cells assessed increase in luciferase activity incubated for 24 hrs; format: cell-based
# [34] = Bacillus subtilis, read-out: MIC
structure (smiles),measurement,setting,value
O=C(CN1C(=O)S/C(=C\c2cccc(-c3cc(=O)c4ccccc4o3)c2)C1=O)c1ccc(F)cc1,MIC,Nakaseomyces glabratus,6.25 µg/mL
same,MIC,Candida albicans,6.25 µg/mL
same,MIC,Pichia kudriavzevii,6.25 µg/mL
same,MIC,Candida parapsilosis,6.25 µg/mL
CC(C)c1ccc(N(C)CCOc2ccc(CC3SC(=O)NC3=O)cc2)cc1 (stereo unspecified),inhibition (INH),RAW264.7,51.5%
Cc1ccc(C)c(/C=C2\SC(=O)N(CCC(=O)Nc3ccccc3O)C2=O)c1,MIC,Klebsiella pneumoniae,6.25 µg/mL
same,MIC,Aspergillus niger [1],25 µg/mL
same,MIC,Escherichia coli [2],6.25 µg/mL
same,IC50,[3],1310 nM
same,MIC,Salmonella typhimurium,6.25 µg/mL
same,MIC,Pseudomonas aeruginosa [4],6.25 µg/mL
same,inhibition,[5],73%
same,MIC,Candida albicans,12.5 µg/mL
same,MIC,Bacillus subtilis; [34],6.25 µg/mL
CN(CCOc1ccc(CC2SC(=O)NC2=O)cc1)c1cc(-c2ccccc2)ccn1 (stereo unspecified),ED25,Mus musculus [6],2.5 mg/kg/day
same,ED25,Mus musculus [7],0.02 mg/kg/day
COc1cc(/C=C2\SC(=O)NC2=O)cc(OC)c1OC,MIC,Escherichia coli [2],250 µg/mL
same,MIC,Staphylococcus aureus [8],200 µg/mL
Cc1nn(COc2ccc(CC3SC(=O)NC3=O)cc2)c(=O)c2ccccc12 (stereo unspecified),Activity,Mus musculus [9],72%
same,Activity,Mus musculus [10],68%
CCc1ccc(CCOc2ccc(CC3SC(=O)N(CCCCCCC#N)C3=O)cc2)nc1 (stereo unspecified),inhibition (INH),[11],72%
CCc1ccc(CCOc2ccc(CC3SC(=O)NC3=O)cc2)nc1 (stereo unspecified) [PIOGLITAZONE],Activity,Mus musculus [9],46.2%
same,Activity,Rattus norvegicus [12],115 mg/dL
same,Activity,Mus musculus [10],46.9%
CC(C)OC(=O)c1ccc(NC(=O)Cc2ccc(/C=C3\SC(=O)NC3=O)cc2[N+](=O)[O-])nc1,Activity,[13],48%
same,fold change (FC),[14],2.9
CC1(C)S[C@@H]2[C@H](NC(=O)[C@H](N)c3ccccc3)C(=O)N2[C@H]1C(=O)O [AMPICILLIN],MIC,Escherichia coli [2],100 µg/mL
same,MIC,Candida albicans,500 µg/mL
O=C(O)c1cn(C2CC2)c2cc(N3CCNCC3)c(F)cc2c1=O [CIPROFLOXACIN],MIC,Salmonella typhimurium,0.78 µg/mL
same,MIC,Pseudomonas aeruginosa [4],0.78 µg/mL
same,MIC,Staphylococcus aureus [8],0.78 µg/mL
same,MIC,Bacillus subtilis; [34],0.78 µg/mL
CCOC(=O)CN1C(=O)SC(Cc2ccc(O)cc2)C1=O (stereo unspecified),Activity,Mus musculus [15],-26.7%
O=C1NC(=O)C(Cc2ccc(OCCn3ccc4ccccc43)cc2)S1 (stereo unspecified),Activity,Mus musculus [16],60%
same,Activity,Mus musculus [17],77%
CN(CCOc1ccc(CC2SC(=O)NC2=O)cc1)c1ccccn1 (stereo unspecified) [ROSIGLITAZONE],Activity,Rattus norvegicus [18],50.5 mg/dL
same,Activity,Rattus norvegicus [19],36 mg/dL
same,Activity,Mus musculus [15],-11.6%
same,Activity,Mus musculus [20],65%
same,ED25,Mus musculus [6],> 30 mg/kg/day
same,ED25,Mus musculus [7],4.1 mg/kg/day
same,Activity,Mus musculus [21],41%
OC(Cn1cncn1)(Cn1cncn1)c1ccc(F)cc1F [FLUCONAZOLE],MIC,Aspergillus niger [1],12.5 µg/mL
same,MIC,Candida albicans,12.5 µg/mL
CCc1nc(C)cc(=O)n1CCOc1ccc(CC2SC(=O)NC2=O)cc1 (stereo unspecified),Activity,Mus musculus [20],73%
same,Activity,Mus musculus [21],85%
CN(C)C(=N)NC(=N)N [METFORMIN],Activity,Mus musculus [15],-34.1%
CN(CCOc1ccc(CC2SC(=O)NC2=O)cc1)Cc1nc(N2CCOCC2)nc(N2CCOCC2)n1 (stereo unspecified),Ratio,Rattus norvegicus [22],4.02
same,Activity,Rattus norvegicus [23],3.16%
O=C(CN1C(=O)S/C(=C\c2cccc(-c3cc(=O)c4ccccc4o3)c2)C1=O)c1ccc([N+](=O)[O-])cc1,MIC,Nakaseomyces glabratus,6.25 µg/mL
same,MIC,Candida albicans,6.25 µg/mL
same,MIC,Pichia kudriavzevii,6.25 µg/mL
same,MIC,Candida parapsilosis,6.25 µg/mL
Cc1c(C)c2c(c(C)c1OCc1ccccc1)C(CN1CCC[C@H]1COc1ccc(/C=C3\SC(=O)NC3=O)cc1)C(C)(C)O2 (stereo partly specified),Activity,Mus musculus [24],8 mM
O=C(CN1C(=O)S/C(=C\c2ccc(Br)cc2)C1=O)Nc1ccc(C(=O)O)cc1,Activity,Rattus norvegicus [18],47.65 mg/dL
same,Activity,Rattus norvegicus [19],34.71 mg/dL
COc1cc(Br)cc(CC2SC(=O)NC2=O)c1CC(=O)O (stereo unspecified),Activity,[25],65%
CCOC(=O)CN1C(=O)SC(Cc2ccc(OC(C)=O)cc2)C1=O (stereo unspecified),Activity,Mus musculus [15],-26.8%
O=C(O)CN1C(=O)S/C(=C\c2cccc(Oc3ccccc3)c2)C1=O,IC50,[26],130 nM
N#Cc1ccccc1-c1ccc(CN2C(=O)S/C(=C\c3c(Cl)cccc3Cl)C2=O)cc1,MIC,Escherichia coli [2],63.6 µg/mL
same,IC50,[27],132000 nM
same,MIC,Bacillus subtilis,100 µg/mL
same,MIC,Bacillus subtilis; [34],63.6 µg/mL
COC(=O)CN1C(=O)S/C(=C\c2cn(CC(=O)OC)cn2)C1=O,MIC,Aspergillus niger [28],7.9 µg/mL
same,MIC,Staphylococcus aureus [29],3.8 µg/mL
same,MIC,[30],2.2 µg/mL
same,MIC,Escherichia coli [31],1.6 µg/mL
same,MIC,Aspergillus fumigatus,1.7 µg/mL
same,MIC,Pseudomonas aeruginosa [32],2.8 µg/mL
COc1cc(/C=C2\SC(=O)N(CC(=O)O)C2=O)cc(OC)c1OC,Activity,Rattus norvegicus [12],104 mg/dL
COC(=O)/C(=C\c1cc(OC)cc(OC)c1)c1ccc(Oc2ccc(CC3SC(=O)NC3=O)cc2)cc1 (stereo unspecified),EC50,[33],284 nM
